Laboratory results reported in patent US4125716A, “Methoxymethyl esters of substituted imidazolidinyl-3-methyl-3-cephem-4-carboxylic acids” (Bristol-Myers Company, priority 1977, dated 1978).
Converted amounts (≈) assume the structure as drawn. Where two headings read alike, the source gives them in different places.

Tests used:
[1] = tested on: Enterobacter cloacae A9659; test: MIC, tube dilution technique, Enterobacter cloacae A9659; assay type: cell-based; settings: overnight, Nutrient Broth, 37° C., read-out: Minimum Inhibitory Concentration
Text: (§1) The methoxymethyl esters of hetacephalexin and hetacefadroxil are the compounds of Formula I wherein R^1 is hydrogen and hydroxy, respectively.

[2] = cited from earlier work
[3] = tested on: Klebsiella pneumoniae A15130; test: MIC, tube dilution technique, Klebsiella pneumoniae A15130; assay type: cell-based
Text: (§2) […]. The methoxymethyl esters of hetacephalexin and hetacefadroxil are the compounds of Formula I wherein R^1 is hydrogen and hydroxy, respectively.

Proteus morganii A15153 = test: MIC, tube dilution technique, Proteus morganii A15153; assay type: cell-based; settings: Morganella morganii, overnight, Nutrient Broth, 37° C., read-out: Minimum Inhibitory Concentration
Text: as §1

[4] = tested on: Serratia marcescens A20019; test: MIC, tube dilution technique, Serratia marcescens A20019; assay type: cell-based; settings: overnight, Nutrient Broth, 37° C., read-out: Minimum Inhibitory Concentration
Text: as §1

Escherichia coli A15119 = test: MIC, tube dilution technique, Escherichia coli A15119; assay type: cell-based
Text: as §2

[5] = tested on: Streptococcus pyogenes A9604; test: MIC, tube dilution technique, Streptococcus pyogenes A9604; assay type: cell-based
Text: as §2

[6] = tested on: Pseudomonas aeruginosa A9843A; test: MIC, tube dilution technique, Pseudomonas aeruginosa A9843A; assay type: cell-based; settings: read-out: Minimum Inhibitory Concentration
Text: as §2

[7] = tested on: Streptococus pneumoniae A9585; test: MIC, tube dilution technique, Streptococcus pneumoniae A9585; assay type: cell-based; settings: overnight, Nutrient Broth, 37° C., read-out: Minimum Inhibitory Concentration
Text: as §1

[8] = tested on: Staphylococcus aureus A9537; test: MIC, tube dilution technique, Staphylococcus aureus A9537; assay type: cell-based
Text: as §2

[9] = tested on: Enterobacter cloacae A9656; test: MIC, tube dilution technique, Enterobacter cloacae A9656; assay type: cell-based; settings: overnight, Nutrient Broth, 37° C., read-out: Minimum Inhibitory Concentration
Text: as §1

Proteus mirabilis A9900 = test: MIC, tube dilution technique, Proteus mirabilis A9900; assay type: cell-based
Text: as §2

[10] = rat, in vivo, po, 200 mg/kg
Method: (§3) The dosing solutions were stored in an ice bath, used within 6 hours of preparation and an aliquot of each solution was retained for assay.
(§4) Rats in each treatment group were administered 1 ml of dosing solution per 100 g of body weight. The four additional control rats were administered a glycerol formal:deionized water (1:1) solution (1ml/100 g b.w.) to serve as a vehicle control group.
(§5) Four rats from each treatment group and one rat from the vehicle control group were killed 15, 30, 60 and 120 minutes after dosing. The rats were killed by exsanguination at the bifurcation of the femoral arteries while they were under light ether anesthesia. Approximately 10 ml of blood were obtained from each rat in 10 ml disposable syringes which had been previously rinsed with a 1% Na heparin in 0.9% NaCl solution. Each sample was immediately transferred from the syringe, after removing the needle, to a heparinized vacutainer tube, gently inverted a few times to mix the anticoagulant and centrifuged at 3000 rpm for 5 minutes in a refrigerated centrifuge at 4° C. to separate plasma. Plasma was transferred to a polypropylene snap-cap tube and stored at -20° C. until assayed. Lungs and brains were removed immediately after exsanguination, rinsed with ice-cold 0.9% NaCl solution, blotted dry with gauze, wrapped separately in pieces of aluminum foil, placed in dry ice for quick freezing and stored at -20° C. until assayed.
(§6) Plasma samples were diluted with an equal volume of acetone and further diluted with a 1:1 mixture of acetone:1% pH6 phosphate buffer to a concentration approximating the midpoint of the standard curve. Tissues were homogenized with 2 volumes of 1% pH 6 phosphate buffer in a glass homogenizer with a motor driven teflon pestle. Equal volumes of homogenate and acetone were mixed and, following centrifugation, the supernatant was diluted for assay in a manner similar to plasma. Dosing solutions were diluted with acetone:1% pH 6 phosphate buffer (1:1) and assayed similar to plasma.

[11] = rat, in vivo, po, 200 mg/kg; remark: listed apart in the source
Method: as §3, §4, §5, §6

[12] = Antibiotic concentrations of dosing solutions retained for assay (cup-plate assay, CHCl3 extract); assay type: physicochemical; settings: pH 7.4 phosphate buffer / CHCl3
Method: as §3
Dosing solutions were diluted with acetone:1% pH 6 phosphate buffer (1:1) and assayed similar to plasma.

[13] = Tissue levels and tissue penetration following oral administration; assay type: in vivo, male Sprague-Dawley rats; settings: rat
Method: as §3, §4
Four rats from each treatment group and one rat from the vehicle control group were killed 15, 30, 60 and 120 minutes after dosing. The rats were killed by exsanguination at the bifurcation of the femoral arteries while they were under light ether anesthesia. Approximately 10 ml of blood were obtained from each rat in 10 ml disposable syringes which had been previously rinsed with a 1% Na heparin in 0.9% NaCl solution. Each sample was immediately transferred from the syringe, after removing the needle, to a heparinized vacutainer tube, gently inverted a few times to mix the anticoagulant and centrifuged at 3000 rpm for 5 minutes in a refrigerated centrifuge at 4° C. to separate plasma. Plasma was transferred to a polypropylene snap-cap tube and stored at -20° C. until assayed. […]

in vivo [14] = settings: rat, po, 200 mg/kg, Brain Level
Method: as §3, §4, §5, §6

in vivo [15] = settings: rat, po, 200 mg/kg
Method: as §3, §4, §5, §6

in vivo [16] = settings: rat, po, 200 mg/kg; for Kp at 0.5 h / Kp at 1 h / Kp at 2 h / Kp at […]: Brain to Plasma Ratio
Method: as §3, §4, §5, §6

in vivo [17] = settings: rat, po, 200 mg/kg; for concentration at 0.5 h / concentration at 1 h / concentration at 2 h: Plasma Level
Method: as §3, §4, §5, §6

in vivo [18] = settings: rat, po, 200 mg/kg, Lung Level
Method: as §3, §4, §5, §6

[19] = Klebsiella pneumoniae A15130, overnight, Nutrient Broth, 37° C., read-out: Minimum Inhibitory Concentration
[20] = Escherichia coli A15119, overnight, Nutrient Broth, 37° C., read-out: Minimum Inhibitory Concentration
[21] = Streptococcus pyogenes A9604, overnight, Nutrient Broth, 37° C., read-out: Minimum Inhibitory Concentration
[22] = A9537, Staph aureus + 50% serum, A9537, overnight, Nutrient Broth, 37° C., read-out: Minimum Inhibitory Concentration
[23] = A9537, Staphylococcus aureus A9537, overnight, Nutrient Broth, 37° C., read-out: Minimum Inhibitory Concentration
[24] = Proteus mirabilis A9900, overnight, Nutrient Broth, 37° C., read-out: Minimum Inhibitory Concentration

CC1=C(C(=O)O)N2C(=O)[C@@H](NC(=O)[C@H](N)c3ccc(O)cc3)[C@H]2SC1 [Cefadroxil, cefadroxil, reference compound]
MIC [1]: > 125 µg/mL
lipid solubility ([2]; known parent compound): lipid-insoluble
ionization and water solubility ([2]; pH of blood plasma): ionized, water-soluble
MIC [3, 19]: 32 µg/mL (≈ 88.1 µM)
MIC (Proteus morganii A15153): > 125 µg/mL
MIC [4]: > 125 µg/mL
MIC (Escherichia coli A15119; [20]): 16 µg/mL (≈ 44 µM)
MIC [5, 21]: 0.25 µg/mL (≈ 0.688 µM)
MIC [6]: > 125 µg/mL
MIC [7]: 1 µg/mL (≈ 2.75 µM)
MIC [8, 22]: 2 µg/mL
MIC [8, 23]: 1 µg/mL (≈ 2.75 µM)
MIC [9]: > 125 µg/mL
MIC (Proteus mirabilis A9900; [24]): 8 µg/mL (≈ 22 µM)

CC1=C(C(=O)O)N2C(=O)[C@@H](NC(=O)[C@H](N)c3ccccc3)[C@H]2SC1 [Cephalexin, cephalexin, reference compound]
MIC [1]: > 125 µg/mL
MIC ([3]; Klebsiella pneumoniae, A15130, read-out: Minimum Inhibitory Concentration): 16 µg/mL (≈ 46.1 µM)
MIC (Proteus morganii A15153): > 125 µg/mL
MIC [4]: > 125 µg/mL
MIC (Escherichia coli A15119; Escherichia coli, A15119, read-out: Minimum Inhibitory Concentration): 8 µg/mL (≈ 23 µM)
MIC ([5]; Streptococcus pyogenes, A9604, read-out: Minimum Inhibitory Concentration): 0.5 µg/mL (≈ 1.44 µM)
MIC [6]: > 125 µg/mL
MIC ([8]; A9537, read-out: Minimum Inhibitory Concentration, Staph aureus + 50% serum, A9537, overnight, Nutrient Broth, 37° C.): 2 µg/mL
MIC ([8]; A9537, read-out: Minimum Inhibitory Concentration, Staphylococcus aureus A9537, overnight, Nutrient Broth, 37° C.): 1 µg/mL (≈ 2.88 µM)
MIC [9]: > 125 µg/mL
MIC (Proteus mirabilis A9900; Proteus mirabilis, A9900, read-out: Minimum Inhibitory Concentration): 4 µg/mL (≈ 11.5 µM)

COCOC(=O)C1=C(C)CSC2C(N3C(=O)[C@@H](c4ccc(O)cc4)NC3(C)C)C(=O)N12 (stereo partly drawn) [Methoxymethyl Ester of Hetacefadroxil]
MIC [1]: > 125 µg/mL
MIC [3, 19]: 63 µg/mL (≈ 141 µM)
MIC (Proteus morganii A15153): 125 µg/mL (≈ 279 µM)
MIC [4]: > 125 µg/mL
MIC (Escherichia coli A15119; [20]): 32 µg/mL (≈ 71.5 µM)
MIC [5, 21]: 0.25 µg/mL (≈ 0.559 µM)
MIC [6]: > 125 µg/mL
MIC [7]: 1 µg/mL (≈ 2.23 µM)
MIC [8, 22]: 2 µg/mL
MIC [8, 23]: 1 µg/mL (≈ 2.23 µM)
MIC [9]: 125 µg/mL (≈ 279 µM)
MIC (Proteus mirabilis A9900; [24]): 8 µg/mL (≈ 17.9 µM)

COCOC(=O)C1=C(C)CSC2C(N3C(=O)[C@@H](c4ccccc4)NC3(C)C)C(=O)N12 (stereo partly drawn) [Methoxymethyl Ester of Hetacephalexin]
absorption [10]: rapidly absorbed
MIC [1]: 125 µg/mL (≈ 290 µM)
Lung to Plasma Ratio × 100, mean ([11]; 15 min): 82.6
Lung to Plasma Ratio × 100, mean ([11]; 30 min): 60.0
Lung to Plasma Ratio × 100, mean ([11]; 60 min): 67.2
Lung to Plasma Ratio × 100, mean ([11]; 120 min): 33.0
MIC [3, 19]: 16 µg/mL (≈ 37.1 µM)
CHCl3 extractability / partition into CHCl3 [12]: all of the antibiotic activity was CHCl3 extractable
penetration of tissue cell membranes and blood-brain barrier compared with cephalexin [13]: more readily penetrates tissue cell membranes and crosses the blood-brain barrier
MIC (Proteus morganii A15153): 125 µg/mL (≈ 290 µM)
MIC [4]: > 125 µg/mL
MIC (Escherichia coli A15119; [20]): 8 µg/mL (≈ 18.5 µM)
concentration at 0.5 h (in vivo [14]): 1700 ng/g
concentration at 1 h (in vivo [14]): 1700 ng/g
concentration at 2 h (in vivo [14]): 500 ng/g
concentration at 0.5 h (in vivo [14]; mean): 2200 ng/g
concentration at 1 h (in vivo [14]; mean): 1800 ng/g
concentration at 2 h (in vivo [14]; mean): 500 ng/g
MIC [5, 21]: 0.25 µg/mL (≈ 0.579 µM)
Kp (in vivo [15]): ~0.83
Tmax (in vivo [15]): ~15 min
MIC [6]: > 125 µg/mL
MIC [7]: 1 µg/mL (≈ 2.32 µM)
Tmax (in vivo [16]): ~15 min
Kp at 0.5 h (in vivo [16]): 0.042
Kp at 1 h (in vivo [16]): 0.047
Kp at 2 h (in vivo [16]): 0.046
Kp at […] (in vivo [16]): 0.056
Kp at 0.5 h (in vivo [16]; mean): 0.047
Kp at 1 h (in vivo [16]; mean): 0.051
Kp at 2 h (in vivo [16]; mean): 0.035
Kp at […] (in vivo [16]; mean): 0.058
Kp (in vivo [16]; brain peak as percent of plasma level): ~0.06
MIC [8, 22]: 2 µg/mL
MIC [8, 23]: 1 µg/mL (≈ 2.32 µM)
MIC [9]: 125 µg/mL (≈ 290 µM)
Tmax (in vivo [17]): ≤ 15 min
concentration at 0.5 h (in vivo [17]): 40000 ng/mL
concentration at 1 h (in vivo [17]): 36000 ng/mL
concentration at 2 h (in vivo [17]): 11000 ng/mL
concentration at 0.5 h (in vivo [17]; mean): 45500 ng/mL
concentration at 1 h (in vivo [17]; mean): 34200 ng/mL
concentration at 2 h (in vivo [17]; mean): 14500 ng/mL
concentration at 0.5 h (in vivo [18]): 23000 ng/g
concentration at 1 h (in vivo [18]): 22000 ng/g
concentration at 2 h (in vivo [18]): 4100 ng/g
concentration at 0.5 h (in vivo [18]; mean): 27000 ng/g
concentration at 1 h (in vivo [18]; mean): 22300 ng/g
concentration at 2 h (in vivo [18]; mean): 4700 ng/g
MIC (Proteus mirabilis A9900; [24]): 8 µg/mL (≈ 18.5 µM)
